Reference: patent publication US9012651B2, “TRPV3 modulators” (AbbVie Inc., priority 2011, dated 2015)

target: human TRPV3 receptors (Homo sapiens (Human), UniProt Q8NET8); assay: Calcium flux assay (FLIPR TETRA), inhibition of the 2-APB response; type: cell-based; details: recombinant HEK293 cells stably expressing TRPV3, Calcium-4 dye, 2-APB at its EC80
Outline: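 Responses are given relative to the maximal 2-APB signal in the absence of compound, using peak fluorescence over baseline. Measured by FLIPR Tetra calcium flux in stable human and mouse TRPV3 HEK293 cells after 90-120 min dark dye incubation.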

human TRPV3 receptors, sequence (Q8NET8 whole entry): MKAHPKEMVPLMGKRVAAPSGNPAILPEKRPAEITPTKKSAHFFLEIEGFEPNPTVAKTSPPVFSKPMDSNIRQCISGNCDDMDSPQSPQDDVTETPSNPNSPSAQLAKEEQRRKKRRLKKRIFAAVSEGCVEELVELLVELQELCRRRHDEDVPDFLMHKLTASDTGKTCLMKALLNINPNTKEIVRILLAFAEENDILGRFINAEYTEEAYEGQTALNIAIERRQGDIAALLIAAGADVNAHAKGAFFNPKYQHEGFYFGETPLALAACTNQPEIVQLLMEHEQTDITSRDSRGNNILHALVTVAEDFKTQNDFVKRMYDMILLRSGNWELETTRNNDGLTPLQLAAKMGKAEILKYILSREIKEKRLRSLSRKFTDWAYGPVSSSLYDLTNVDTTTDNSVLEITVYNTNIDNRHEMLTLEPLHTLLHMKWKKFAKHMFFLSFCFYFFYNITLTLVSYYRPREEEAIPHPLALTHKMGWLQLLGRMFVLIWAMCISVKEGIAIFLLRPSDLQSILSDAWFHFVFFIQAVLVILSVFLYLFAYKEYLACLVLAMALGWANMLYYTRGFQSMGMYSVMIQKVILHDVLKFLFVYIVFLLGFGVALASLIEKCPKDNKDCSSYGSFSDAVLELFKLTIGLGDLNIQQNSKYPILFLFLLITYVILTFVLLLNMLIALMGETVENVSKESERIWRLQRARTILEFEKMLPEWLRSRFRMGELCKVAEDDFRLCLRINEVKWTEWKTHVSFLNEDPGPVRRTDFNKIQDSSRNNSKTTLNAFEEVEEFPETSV

| SMILES | IC50 [nM] |
| --- | --- |
| CC1CCN(C(=O)c2ccc(-c3ccc(F)c(CN[C@@H](CO)C(C)C)n3)cc2)CC1 [Example 275, {4-[5-fluoro-6-({[(2R)-1-hydroxy-3-methylbutan-2-yl]amino}methyl)pyridin-2-yl]phenyl}(4-methylpiperidin-1-yl)methanone] | 1330 |
| CC(C)[C@H](CO)NCc1nc(-c2ccc(C(=O)N3CCCC3)cc2)ccc1F [Example 276, {4-[5-fluoro-6-({[(2R)-1-hydroxy-3-methylbutan-2-yl]amino}methyl)pyridin-2-yl]phenyl}(pyrrolidin-1-yl)methanone] | 10900 |
| CCCN(CCC)C(=O)c1ccc(-c2ccc(F)c(CN[C@@H](CO)C(C)C)n2)cc1 [Example 277, 4-[5-fluoro-6-({[(2R)-1-hydroxy-3-methylbutan-2-yl]amino}methyl)pyridin-2-yl]-N,N-dipropylbenzamide] | 650 |
| CC(C)[C@H](CO)NCc1nc(-c2cncc(Cl)c2)ccc1F [Example 278, (2R)-2-{[(5′-chloro-5-fluoro-2,3′-bipyridin-6-yl)methyl]amino}-3-methylbutan-1-ol] | 2690 |
| CC(C)[C@H](CO)NCc1nc(-c2ccc(F)c(C#N)c2)ccc1F [Example 279, 2-fluoro-5-[5-fluoro-6-({[(2R)-1-hydroxy-3-methylbutan-2-yl]amino}methyl)pyridin-2-yl]benzonitrile] | 940 |
| Cc1cc(-c2ccc(F)c(CN[C@@H](CO)C(C)C)n2)ccc1F [Example 280, (2R)-2-({[3-fluoro-6-(4-fluoro-3-methylphenyl)pyridin-2-yl]methyl}amino)-3-methylbutan-1-ol] | 250 |
| CC(C)[C@H](CO)NCc1nc(-c2ccc(F)c(C(F)(F)F)c2)ccc1F [Example 281, (2R)-2-[({3-fluoro-6-[4-fluoro-3-(trifluoromethyl)phenyl]pyridin-2-yl}methyl)amino]-3-methylbutan-1-ol] | 390 |
| CC(C)[C@H](CO)NCc1nc(-c2cc(C(F)(F)F)ccc2F)ccc1F [Example 282, (2R)-2-[({3-fluoro-6-[2-fluoro-5-(trifluoromethyl)phenyl]pyridin-2-yl}methyl)amino]-3-methylbutan-1-ol] | 370 |
| COc1cc(-c2ccc(F)c(CN[C@@H](CO)C(C)C)n2)cc(F)c1F [Example 283, (2R)-2-({[6-(3,4-difluoro-5-methoxyphenyl)-3-fluoropyridin-2-yl]methyl}amino)-3-methylbutan-1-ol] | 260 |
| CC(C)[C@H](CO)NCc1cccc(C#Cc2ccc(F)cc2F)n1 [Example 284, (2R)-2-[({6-[(2,4-difluorophenyl)ethynyl]pyridin-2-yl}methyl)amino]-3-methylbutan-1-ol] | 520 |
| CC(C)[C@H](CO)NCc1cccc(C#Cc2ccccc2F)n1 [Example 285, (2R)-2-[({6-[(2-fluorophenyl)ethynyl]pyridin-2-yl}methyl)amino]-3-methylbutan-1-ol] | 990 |
| CC(C)[C@H](CO)NCc1cccc(C#Cc2ccc(Cl)cc2)n1 [Example 286, (2R)-2-[({6-[(4-chlorophenyl)ethynyl]pyridin-2-yl}methyl)amino]-3-methylbutan-1-ol] | 520 |
| Cc1nc(-c2ccccc2)sc1-c1ccc(F)c(CN[C@@H](CO)C(C)C)n1 [Example 287, (2R)-2-({[3-fluoro-6-(4-methyl-2-phenyl-1,3-thiazol-5-yl)pyridin-2-yl]methyl}amino)-3-methylbutan-1-ol] | 730 |
| CC(C)[C@H](CO)NCc1nc(C#CCCC2CCCCC2)ccc1F [Example 288, (2R)-2-({[6-(4-cyclohexylbut-1-yn-1-yl)-3-fluoropyridin-2-yl]methyl}amino)-3-methylbutan-1-ol] | 170 |
| CC(C)[C@H](CO)NCc1nc(C#Cc2ccccc2)ccc1F [Example 289, (2R)-2-({[3-fluoro-6-(phenylethynyl)pyridin-2-yl]methyl}amino)-3-methylbutan-1-ol] | 130 |
| CC(C)[C@H](CO)NCc1nc(-c2ccc(C(F)(F)F)s2)ccc1F [Example 290] | 170 |
